This is an account of results in PMC6115404 (2018).

In assay [1] the test system is Tel26 (for FRET) (DNA, G4) AAAGGGTTAGGGTTAGGGTTAGGGAA
The assay is described as follows: FRET melting. Conditions: K+ (60 mM potassium cacodylate); pH 7.4; 400 nM DNA, 1.0 equivalent compound; second Tm (ΔTm 41.5, dimeric complex) at 2-3 equivalents.

In assay [2] the test system is wtTel26 (DNA, G4) TTAGGGTTAGGGTTAGGGTTAGGGTT
Nature of the assay: 1H NMR titration. Conditions: K+ (25 mM K-phosphate, 70 mM KCl); no well-defined complex at higher equivalents.

Assay [3] concerns F10T (for FRET), double-stranded DNA (DNA, hairpin, hexaethylene glycol (HEG) linker between nucleotides 10 and 11) TATAGCTATATATAGCTATA
Nature of the assay: FRET melting. Conditions: K+ (60 mM potassium cacodylate); pH 7.4; 400 nM DNA; compound concentration not in text.

Assay [4] deals with Tel26 (DNA, G4) AAAGGGTTAGGGTTAGGGTTAGGGAA
Nature of the assay: NMR solution structure. Conditions: K+ (25 mM K-phosphate, 70 mM KCl); pH 7.0, 25 °C; bound at 5'-end, slow exchange.

One may read the ΔTm as the change in melting temperature against a reference sample. For the compound `NCCNCCN.NCCNCCN.NCCNCCN.[Pt+2].[Pt+2].[Pt+2].c1cc(-c2ccc(N(c3ccc(-c4ccncc4)cc3)c3ccc(-c4ccncc4)cc3)cc2)ccn1`, the results for the ΔTm in assay [1] and in assay [3] were 8.4 °C and 2.5 °C, respectively. The binding result in assay [2] and in assay [4] was “yes” each time.
